Data from PubChem BioAssay AID785 (University of Pittsburgh Molecular Library Screening Center, 2007).

What follows are compounds tested against Serine/threonine-protein kinase PLK1 (Homo sapiens) (UniProt P53350) (assay: PLK1 kinase inhibitor potency, dose response, biochemical, TR-FRET, IC50 (AID 785)). Conditions: recombinant human Plk1, fluorescence polarization phosphopeptide binding, 3 h.
Serine/threonine-protein kinase PLK1 (Homo sapiens), sequence (P53350 whole entry, looked up): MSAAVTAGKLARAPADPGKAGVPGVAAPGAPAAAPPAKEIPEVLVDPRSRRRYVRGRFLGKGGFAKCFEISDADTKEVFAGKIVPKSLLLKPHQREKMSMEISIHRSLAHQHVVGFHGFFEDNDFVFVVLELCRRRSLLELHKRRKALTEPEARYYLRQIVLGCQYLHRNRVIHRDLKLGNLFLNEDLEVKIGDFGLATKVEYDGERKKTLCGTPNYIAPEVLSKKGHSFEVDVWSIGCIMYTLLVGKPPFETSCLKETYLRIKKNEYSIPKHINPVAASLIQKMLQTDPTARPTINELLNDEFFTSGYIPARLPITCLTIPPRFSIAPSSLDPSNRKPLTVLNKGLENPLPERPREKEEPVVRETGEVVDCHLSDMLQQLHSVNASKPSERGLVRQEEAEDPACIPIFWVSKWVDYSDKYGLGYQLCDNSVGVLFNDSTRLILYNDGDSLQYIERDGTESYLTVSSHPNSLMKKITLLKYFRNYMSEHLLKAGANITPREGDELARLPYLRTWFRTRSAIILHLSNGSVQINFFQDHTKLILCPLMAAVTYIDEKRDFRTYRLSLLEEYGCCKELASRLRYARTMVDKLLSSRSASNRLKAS

Compound | IC50 [µM]
CCOC(=O)c1sc2nc[nH]c(=O)c2c1C | 3.09
COc1ccc(Cn2c(N)c(C(=O)NCc3ccco3)c3nc4ccccc4nc32)cc1OC | 8.82
Cc1oc2ncnc(N)c2c1C | 3.75
COC(=O)c1sc2nc[nH]c(=O)c2c1C | 1.44
Cc1[nH]nc2c1C1(CCN(Cc3ccccc3)CC1)C(C#N)=C(N)O2 | 1.4
CC1CCN(c2ncnc3nc[nH]c23)CC1 | 3.13
COc1cccc(Nc2ncnc3nc[nH]c23)c1 | 2.37
NNc1ncnc2c1cnn2-c1ccccc1 | 4.18
Nc1nc2ccc([N+](=O)[O-])c(N)c2s1 | 0.235
C=CCNc1nc(N)c(C(=O)c2ccc3c(c2)OCO3)s1 | 3.85
O=C(Nc1cccnc1)c1cnn2cccnc12 | 4.07
O=C(CSc1n[nH]c(-c2ccc(Cl)cc2Cl)n1)Nc1ccccn1 | 0.534
Cc1cc(C(C#N)c2cccc(Cl)c2)n2ncnc2n1 (centres undefined) | 5.98
O=C(O)c1ccc2c(c1)[C@@H]1C=CC[C@@H]1[C@H](c1ccccn1)N2 | 16.9
CC1Cc2nc(SCC(=O)Nc3nccs3)n(C)c(=O)c2S1 (centres undefined) | 9.72
CCOc1c(Br)ccc2c1sc1nc[nH]c(=O)c12 | 2.15
N#C/C(=N\Nc1c(Cl)cccc1Cl)C(=O)NN | 0.814
O=c1[nH]cnc2cc(-c3ccccc3)sc12 | 6.2
Nc1[nH]ncc1N=Nc1ccc(Cl)cc1 | 2.22
O=c1[nH]cnc2scc(-c3cccs3)c12 | 4.24

Compound | IC50 [µM]
NC(=O)c1ccc(C(F)(F)F)n(Cc2cccc(Cl)c2)c1=O | 22.8
COc1cc(/C=C(\C#N)c2[nH]nc(N)c2C#N)cc(OC)c1O | 1.86
COc1ccccc1Nc1ncnc2nc[nH]c12 | 1.01
N#Cc1c(-c2ccc3c(c2)OCO3)csc1N | 10.7
Cc1cccc(N=Nc2c(N)n[nH]c2-c2ccc(Cl)cc2)c1 | 18.5
Nc1ncnc(Nc2cccc(C(F)(F)F)c2)n1 | 0.469
c1ccc2c(-c3ccncc3)c[nH]c2c1 | 4.12
COC(=O)c1c(-c2ccc(Br)cc2)noc1N | 7.93
CCc1nc2n[nH]c(N)c2c2c1CSC(C)(C)C2 | 5.1
O=c1[nH]cnc2sc(-c3ccccc3)cc12 | 6.08
CCOc1ccc(N2Nc3n[nH]c(N)c3N2)cc1 | 3.4
Cc1c(C(=O)OC(C)C)sc2nc[nH]c(=O)c12 | 4.01
Nc1ncnc(Nc2ccccc2C(F)(F)F)n1 | 4.84
CCOC(=O)c1c(-c2ccncc2)csc1N | 7.01
Cc1cccc(Nc2ncnc3nc[nH]c23)c1 | 2.23
Cc1ncc([N+](=O)[O-])n1CCOC(=O)Nc1ccc(Cl)c(Cl)c1 | 0.775
COc1ccc(N2Nc3n[nH]c(N)c3N2)cc1 | 1.64
Cc1nc2c([nH]1)C1(CCN(Cc3ccccc3)CC1)C(C#N)=C(N)O2 | 0.823
Nc1[nH]ncc1C(=O)Nc1cccc(C(F)(F)F)c1 | 0.888
